The source made the active and inactive calls. The calls are words filed in the database; no cut-off is given here.

Common to all, as to type: functional, cell-based
Experiment [1] concerns the target T1, Taste receptor type 2 member 1 (Homo sapiens) (UniProt Q9NYW7).
T1 sequence (whole entry): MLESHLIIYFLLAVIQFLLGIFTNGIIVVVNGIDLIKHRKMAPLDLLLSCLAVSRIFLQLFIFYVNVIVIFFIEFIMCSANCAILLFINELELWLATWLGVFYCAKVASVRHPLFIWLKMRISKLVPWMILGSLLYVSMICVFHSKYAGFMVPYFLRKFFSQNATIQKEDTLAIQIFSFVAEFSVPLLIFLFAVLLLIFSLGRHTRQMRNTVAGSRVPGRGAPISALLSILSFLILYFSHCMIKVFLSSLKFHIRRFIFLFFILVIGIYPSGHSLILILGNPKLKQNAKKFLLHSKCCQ
The experiment can be described thus: Antagonist activity at recombinant human N-terminal rat ST3 receptor-fused TAS2R1 expressed in HEK293T cells co-expressing Galpha16gust44 assessed as inhibition of trans-isocohumulone-induced increase in intracellular calcium level at 100 uM by FLIPR assay. A general note: Calcium assays in cells follow changes in intracellular calcium, usually with a dye or a luminescent sensor.

The target in experiment [2] is T2, Taste receptor type 2 member 10 (Homo sapiens) (UniProt Q9NYW0).
T2 sequence (whole entry): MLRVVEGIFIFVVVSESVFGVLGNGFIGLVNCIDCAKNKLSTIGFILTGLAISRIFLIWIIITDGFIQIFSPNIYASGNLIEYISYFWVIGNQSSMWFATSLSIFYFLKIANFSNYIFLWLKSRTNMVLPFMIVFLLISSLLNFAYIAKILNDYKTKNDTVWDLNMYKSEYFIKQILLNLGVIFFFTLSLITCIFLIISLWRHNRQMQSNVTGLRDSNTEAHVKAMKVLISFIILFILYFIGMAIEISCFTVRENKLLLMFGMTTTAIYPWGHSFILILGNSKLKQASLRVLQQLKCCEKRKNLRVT
The experiment can be described thus: Agonist activity at recombinant human N-terminal rat ST3 receptor-fused TAS2R10 expressed in HEK293T cells co-expressing Galpha16gust44 assessed as increase in intracellular calcium level at 100 uM by FLIPR assay.

Experiment [3] has as its target T3, Taste receptor type 2 member 43 (Homo sapiens) (UniProt P59537).
T3 sequence (whole entry): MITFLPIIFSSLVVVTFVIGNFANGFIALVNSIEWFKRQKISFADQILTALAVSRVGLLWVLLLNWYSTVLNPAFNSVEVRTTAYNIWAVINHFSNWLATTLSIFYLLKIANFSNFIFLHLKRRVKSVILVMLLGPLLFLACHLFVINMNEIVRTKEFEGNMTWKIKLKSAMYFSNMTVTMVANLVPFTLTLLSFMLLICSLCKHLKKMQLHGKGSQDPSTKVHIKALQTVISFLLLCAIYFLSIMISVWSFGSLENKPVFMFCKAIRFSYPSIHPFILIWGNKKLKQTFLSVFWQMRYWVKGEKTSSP
The experiment can be described thus: Antagonist activity at recombinant human N-terminal rat ST3 receptor-fused TAS2R43 expressed in HEK293T cells co-expressing Galpha16gust44 assessed as inhibition of aristolochic acid-induced intracellular calcium level at 100 uM by FLIPR assay.

In experiment [4] the target is T4, Taste receptor type 2 member 8 (Homo sapiens) (UniProt Q9NYW2).
T4 sequence (whole entry): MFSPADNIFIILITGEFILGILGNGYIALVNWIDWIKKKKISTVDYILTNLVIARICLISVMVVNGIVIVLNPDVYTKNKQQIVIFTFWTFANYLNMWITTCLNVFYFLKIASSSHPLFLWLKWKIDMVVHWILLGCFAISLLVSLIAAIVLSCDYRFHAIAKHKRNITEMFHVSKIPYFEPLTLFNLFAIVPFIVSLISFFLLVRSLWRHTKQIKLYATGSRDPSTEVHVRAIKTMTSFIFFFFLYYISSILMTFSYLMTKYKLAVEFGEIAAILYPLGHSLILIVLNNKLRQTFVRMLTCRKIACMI
The experiment can be described thus: Antagonist activity at recombinant human N-terminal rat ST3 receptor-fused TAS2R8 expressed in HEK293T cells co-expressing Galpha16gust44 assessed as inhibition of chloramphenicol-induced increase in intracellular calcium level at 100 uM by FLIPR assay.

Experiment [5] has as its target T5, Taste receptor type 2 member 39 (Homo sapiens) (UniProt P59534).
T5 sequence (whole entry): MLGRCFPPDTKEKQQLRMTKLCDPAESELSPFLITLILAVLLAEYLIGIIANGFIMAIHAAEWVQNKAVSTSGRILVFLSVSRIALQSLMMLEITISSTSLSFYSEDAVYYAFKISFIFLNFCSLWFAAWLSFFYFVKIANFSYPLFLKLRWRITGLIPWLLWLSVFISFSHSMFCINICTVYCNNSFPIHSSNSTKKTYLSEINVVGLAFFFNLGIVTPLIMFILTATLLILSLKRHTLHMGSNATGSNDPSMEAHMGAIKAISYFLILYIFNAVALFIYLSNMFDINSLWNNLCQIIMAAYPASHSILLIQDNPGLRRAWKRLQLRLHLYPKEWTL
The experiment can be described thus: Antagonist activity at recombinant human N-terminal rat ST3 receptor-fused TAS2R39 expressed in HEK293T cells co-expressing Galpha16gust44 assessed as inhibition of epigallocatechin galiate-induced increase in intracellular calcium level at 100 uM by FLIPR assay.

In experiment [6] the target is T6, Taste receptor type 2 member 50 (Homo sapiens) (UniProt P59544).
T6 sequence (whole entry): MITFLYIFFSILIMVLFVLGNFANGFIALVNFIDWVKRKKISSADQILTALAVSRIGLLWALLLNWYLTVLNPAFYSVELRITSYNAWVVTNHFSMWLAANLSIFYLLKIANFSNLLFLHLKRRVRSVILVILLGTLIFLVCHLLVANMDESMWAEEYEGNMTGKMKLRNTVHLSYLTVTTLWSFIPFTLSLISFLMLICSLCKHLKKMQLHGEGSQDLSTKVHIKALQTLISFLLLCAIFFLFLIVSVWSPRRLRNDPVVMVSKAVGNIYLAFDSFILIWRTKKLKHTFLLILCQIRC
The experiment can be described thus: Antagonist activity at recombinant human N-terminal rat ST3 receptor-fused TAS2R50 expressed in HEK293T cells co-expressing Galpha16gust44 assessed as inhibition of andrographolide-induced increase in intracellular calcium level at 100 uM by FLIPR assay.

The target in experiment [7] is T7, Taste receptor type 2 member 3 (Homo sapiens) (UniProt Q9NYW6).
T7 sequence (whole entry): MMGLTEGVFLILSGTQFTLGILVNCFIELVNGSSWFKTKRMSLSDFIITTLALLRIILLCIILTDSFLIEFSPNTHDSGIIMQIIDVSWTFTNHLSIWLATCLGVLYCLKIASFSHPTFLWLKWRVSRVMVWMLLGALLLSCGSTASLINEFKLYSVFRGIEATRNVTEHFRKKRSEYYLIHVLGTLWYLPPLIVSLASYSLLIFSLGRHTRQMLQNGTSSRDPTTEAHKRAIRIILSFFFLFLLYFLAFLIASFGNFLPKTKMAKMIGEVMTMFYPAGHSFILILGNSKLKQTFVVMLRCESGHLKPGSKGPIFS
The experiment can be described thus: Antagonist activity at recombinant human N-terminal rat ST3 receptor-fused TAS2R3 expressed in HEK293T cells co-expressing Galpha16gust44 assessed as inhibition of chloroquine-induced increase in intracellular calcium level at 100 uM by FLIPR assay.

Turning to `C/C1=C\C[C@H](O)/C(C)=C/[C@H]2OC(=O)[C@@H](C)[C@@H]2CC1`, the inhibition entry in experiment [1], in experiment [4], in experiment [5], in experiment [6] and in experiment [7] was “inactive” in each case. Further, the outcome in experiment [2] was Active. In experiment [3], the inhibition result is “Active”.

In the case of `C/C1=C\C[C@H](O)[C@@H](C)C[C@H]2OC(=O)[C@@H](C)[C@@H]2CC1`, the inhibition result in experiment [1], in experiment [4], in experiment [5], in experiment [6] and in experiment [7] was “inactive” in each case. The outcome in experiment [2] was Active. In addition, the inhibition result in experiment [3] is “Active”.
